From US20230296590A1, “Devices and Methods to Induce Adult type Maturation of Human Pluripotent Stem Cell Derived Cardiomyocytes” (priority 2022, published 2023)
“Also recorded” adds a separate entry of the source. Bridge positions count the residues as written; N and C are the ends. Ends that are not written are not given here.

Assays:
Format in all cases: cell-based, human
hiPSC-CMs [1] = assay: Optical recording of action potential with genetically encoded voltage indicators (Varnam, Arclight); conditions: cells on CMM
Source text: Cyto-calcium, Action potential and redox handling. Cytoplasmic calcium and redox status of iPSC-CMs using spinning disk confocal microscope (Olympus/Andor Revolution XD) was monitored. 3rd gen. lentiviral probes using ViraPower™ Lentiviral mix was generated and transduced iPSC-CMs using MOI 5 (multiplicity of infection) that generated good signal to noise ratio. Cytoplasmic targeted roGFP-Grx1 probes(Gutscher et al., 2008), Calcium probe (genetically encoded Ca^2+ indicators (GECIs)-GCamP6f(Hubbi et al., 2013), Arclight(Jin et al., 2012) and Varnam(Kannan et al., 2018) were obtained from Addgene and transferred to pENTR™/SD/D-TOPO® vector using PCR. The vector was sequence verified and then transferred to pLEX_307 vector (Addgene plasmid #41392) that contains the EFlα promoter using the LR reaction. […] The virus was generated for each probe in HEK293-FT cells using an optimized mix of three packaging plasmids (pLP1, pLP2, and pLP/VSVG). The virus was concentrated using PEG-it™ Virus Precipitation Solution (SBI biosciences) that also removes HEK293-FT cell medium.
To monitor the florescence signal from cells transduced with probes, cells were plated at a density of 200,000 per cm^2 on cultured surfaces for at least 10-15 days prior to imaging, to achieve cell-cell coupling. […]
Florescence from cells (transduced with probes) was collected separately at a […] using an electron-multiplying charge-coupled device (EMCCD) camera using Andor Revolution X1 Spinning Disk confocal inverted microscope. […] ROS (roGFP2-Grx) probes were excited with 405 nm and 488 nm laser and emission was detected using bandpass filter of 500 nm-554 nm. […] Recovery of glutathione pool was monitored for 180-240 sec before the utilization of diamide (oxidized) and DTT (reduced) to obtain min and max signal. […] Cells transduced with cytoplasmic GCamp6f were excited at 488 nm and emission was detected using bandpass filter of 500 nm-554 nm. […] The data was analyzed using image J (NIH).

hiPSC-CMs [2] = assay: Sarcoplasmic reticulum calcium content, caffeine-induced Ca2+ release, Fura2 imaging; conditions: 10 mM
Procedure: To investigate calcium content of the sarcoplasmic reticulum (SR), Fura2 (ThermoFisher 3 uM) loaded cells were perfused with caffeine. Cells were initially perfused with modified Tyrode solution at 37C (pH 7.4) containing (in mM) 130 NaCl, 5 KCl, 1 MgCl2, 1.2 CaCl2, 20 Na-HEPES, 10 glucose, 1 pyruvate, 0.1% fatty acid free-BSA. After pacing the cells at 0.5 Hz for 30-40 sec, cells were perfused with the modified Tyrode buffer containing caffeine (10 mM). Images were analyzed using image J (NIH). Line plots (trace plots) were generated for both action potential and calcium transients by calculating average intensity (and standard deviation) from 3 biological batches with >100 cells for each timepoint and plotting it against the time (using R).

hiPSC-CMs [3] = assay: Acute pathological hypertrophy model (endothelin-1 treatment), functional evaluation; conditions: for effect on FAO / effect on OxPhos / effect on glycolysis: 10 nM, 48 hrs
Procedure: Human iPSC culture and cardiac differentiation. Human iPSCs (WTC-11) were cultured using chemically defined medium and published protocols (Burridge et al., 2014; Tohyama et al., 2013). Undifferentiated iPSCs were seeded (125,000 cells per cm^2) on Geltrex (ThermoScientific)-coated six-well plates and maintained in E8 medium (Life Technologies) for 4 days when they reached 80-85% confluence. Medium was then changed to cardiac differentiation medium (CDM), consisting of RPMI 1640 medium (11875, ThermoScientific), 500 μg/ml O. sativa—derived recombinant human albumin (A9731, Sigma-Aldrich), and 220 μg/ml L-ascorbic acid (A4544-Sigma-Aldrich), containing B27 supplement-insulin free (A1895601 ThermoScientific) to initiate differentiation. On d0-d2, medium was supplemented with 6 μM CHIR99021 (LC Laboratories) for induction of mesoderm. On d4-d5, medium was supplemented with 10 uM IWR (Selleck Chemicals) for cardiac differentiation. Contracting cells are typically noted, starting on d7-d8. To purify cardiac myocytes, a variant of RPMI 1640 medium without D-glucose (11879, Life Technologies) was supplemented with 4 mM sodium lactate (L4263, Sigma-Aldrich) for 2 days on day 10 of differentiation followed by culture in cardiac media, containing B-27™ Supplement with insulin (17504001, ThermoScientific) in CDM medium (Tohyama et al., 2013). Cells were dissociated on d13-d14 using TrypLE (ThermoScientific) and plated/cultured on either flat/anisotropic cell culture surfaces for 15-16 further days (d30 for flat and CMM) or 45 days (d60 for flat culture surface) in cardiac culture media. Cardiac culture media was used in all the conditions from day 13-d14 onwards, and it was composed of RPMI-1640, lipid-enhanced Cellastium S, 220 μg/ml L-ascorbic acid and B27 with insulin. Control flat tissue-culture surfaces were coated with fibronectin at a concentration of 4 μg/cm^2. For hypertrophy induction, day 30 differentiated cells were treated with 10 nM endothelin 1 (E7764 Millipore Sigma) for 48 hrs in cardiac culture media.
Mitochondrial respiration. Cellular energetics was monitored using the Seahorse Bioscience XF instrument in intact cells (non-permeabilized cells) and permeabilized cells(Afzal et al., 2017; Salabei et al., 2014). Intact cell respiration was monitored to evaluate the contribution of oxidative phosphorylation versus glycolysis, whereas permeabilized cell respiration was used to monitor electron transport chain (ETC) complex function/activity using ETC complex specific substrates and fatty acid oxidation.
For permeabilized cell respiration, iPSC-CMs were permeabilized using […] of Seahorse XF Plasma Membrane Permeabilizer (Part #102504-100). In permeabilized cells only OCR is measured. Mitochondria respiration were assayed using Buffer (pH 7.2) containing 137 mM KCl, 2 mM KH2PO4, 0.5 mM EGTA, 2.4 mM MgCl2, 20 mM HEPES with 0.2% fatty acid-free BSA (Sigma). Respiration rates were normalized to the protein concentration using BCA assay. Complex I respiration were evaluated by 5 mM glutamate and 5 mM malate (G/M) to evaluate State 4 respiration; 4 mM ADP was then injected to evaluate State 3 respiration. Maximal respiratory capacity (uncoupled mitochondria) was measured by injecting […]. Coupling of Electron Transport Chain respiration to ATP synthesis were evaluated using the ATP synthase inhibitor oligomycin (4 uM). Complex II respiration were measured using 5 mM succinate. Fatty acid oxidation was measured by injecting 200 uM of Palmitoyl-1-carnitine chloride/2.5 mM Malate and assessing the increase in OCR.
Florescence from cells (transduced with probes) was collected separately at a […] using an electron-multiplying charge-coupled device (EMCCD) camera using Andor Revolution X1 Spinning Disk confocal inverted microscope. Data was acquired with 2×2 pixel binning. ROS (roGFP2-Grx) probes were excited with 405 nm and 488 nm laser and emission was detected using bandpass filter of 500 nm-554 nm. […]

CN(CCOc1ccc(NS(C)(=O)=O)cc1)CCc1ccc(NS(C)(=O)=O)cc1 [Dofetilide]
tolerance of cells to 10 nM dose (hiPSC-CMs [1]; 10 nM): fail to tolerate
effect on action potential (hiPSC-CMs [1]; Dofetilide IKr 3 nM): AP prolongation and early after depolarization (EAD); also recorded: appearance of EAD and APD prolongation

CCN(CC)CC(=O)Nc1c(C)cccc1C [Lidocaine]
reduction of beat frequency (hiPSC-CMs [1]; Lidocaine INa 100 um, 2 biological batches, n=30): ~40%

Cn1c(=O)c2c(ncn2C)n(C)c1=O [caffeine]
calcium amplitude following caffeine exposure (SR load) (hiPSC-CMs [2]; cells matured on CMM): significant increase in amplitude
calcium release from SR following caffeine exposure (hiPSC-CMs [2]; d30 cells): failed to demonstrate the calcium release

endothelin 1 (CSCSSLMDKECVYFCHLDIIW; disulfide 1-15, 3-11; ends not checked; UniProt P05305 53-73, looked up) [ET-1, pathological hypertrophy stimulus (E7764 Millipore Sigma)]
effect on action potential duration (hiPSC-CMs [3]; both d30 and CMM): increase
effect on beating frequency (hiPSC-CMs [3]; both d30 and CMM): decrease
effect on Ca2+ peak amplitude (hiPSC-CMs [3]; cells on CMM): no significant effect
effect on oxidative stress handling (roGFP2 after H2O2) (hiPSC-CMs [3]; cells on CMM): unperturbed
effect on FAO (hiPSC-CMs [3]; cells on CMM): reduction
effect on OxPhos (hiPSC-CMs [3]; cells on CMM): no effect
effect on glycolysis (hiPSC-CMs [3]; cells on CMM): slight increase
effect on respiratory control ratio (state 3/state 4) (hiPSC-CMs [3]; cells on CMM, acute treatment): not affected
effect on Ca2+ peak amplitude (hiPSC-CMs [3]; d30 cells): increase in peak amplitude
effect on oxidative stress handling (roGFP2 after H2O2) (hiPSC-CMs [3]; d30 cells): reduced oxidative stress handling
effect on FAO (hiPSC-CMs [3]; d30 cells): increase
effect on OxPhos (hiPSC-CMs [3]; d30 cells): significantly increased
effect on glycolysis (hiPSC-CMs [3]; d30 cells): significantly increased
